Reference: PubChem BioAssay AID248 (DTP/NCI, 2004)
“And” between values parts separate entries of the source, which are not always exact repeats. Identical values can stand only once. Toxic doses and inconclusive results are not listed.

Test system: L1210 leukemia ip in BDF1 mice, survival T/C
Assay: NCI In Vivo Anticancer Drug Screen. Data for tumor model L1210 Leukemia (intraperitoneal) in B6D2F1 (BDF1) mice
Conditions: endpoint: mean survival time, higher = longer survival
Procedure, shortened: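 Tumor was transplanted into mice, which were then dosed with test compound or vehicle alone. Survival was recorded for each group, and the treated figure was expressed relative to the control figure.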

[1] = dose: 8.0 mg/kg/injection, schedule: Q01DX Z (ip), vehicle: carboxymethylcellulose (CMC)

Compound: O=NN(CCCl)C(=O)NC1CCC(C(=O)O)CC1 (configuration not stated)
- T/C (dose: 6.0 mg/kg/injection, schedule: Q01DX001 (ip), vehicle: saline with Tween-80): 168 % of control
- T/C (dose: 9.0 mg/kg/injection, schedule: Q01DX001 (ip), vehicle: saline with Tween-80): 195 % of control and 215 % of control
- T/C (dose: 13.0 mg/kg/injection, schedule: Q01DX001 (ip), vehicle: saline with Tween-80): 275 % of control and 154 % of control and 260 % of control
- T/C (dose: 20.0 mg/kg/injection, schedule: Q01DX001 (ip), vehicle: saline with Tween-80): 291 % of control and 409 % of control
- T/C (dose: 30.0 mg/kg/injection, schedule: Q01DX001 (ip), vehicle: saline with Tween-80): 310 % of control
- T/C (dose: 45.0 mg/kg/injection, schedule: Q01DX001 (ip), vehicle: saline with Tween-80): 544 % of control
- T/C (dose: 46.0 mg/kg/injection, schedule: Q01DX001 (ip), vehicle: saline with Tween-80): 311 % of control and 191 % of control
- T/C (dose: 67.5 mg/kg/injection, schedule: Q01DX001 (ip), vehicle: saline with Tween-80): 525 % of control
- T/C (dose: 93.0 mg/kg/injection, schedule: Q01DX001 (ip), vehicle: saline with Tween-80): 209 % of control and 101 % of control
- T/C (dose: 139.0 mg/kg/injection, schedule: Q01DX001 (ip), vehicle: saline with Tween-80): 91 % of control

Compound: NC(=S)N/N=C(/c1cccs1)C1CC1
- T/C (dose: 4.0 mg/kg/injection, schedule: Q01DX Z (ip), vehicle: carboxymethylcellulose (CMC)): 116 % of control
- T/C (dose: 4.0 mg/kg/injection, schedule: Q01DX Z (oral), vehicle: carboxymethylcellulose (CMC)): 97 % of control
- T/C [1]: 107 % of control
- T/C (dose: 8.0 mg/kg/injection, schedule: Q01DX Z (oral), vehicle: carboxymethylcellulose (CMC)): 115 % of control
- T/C (dose: 16.0 mg/kg/injection, schedule: Q01DX Z (oral), vehicle: carboxymethylcellulose (CMC)): 107 % of control

Compound: COc1cc2c(c(OC)c1OC)-c1cc(I)c(O)cc1[C@@H](NC(C)=O)CC2
- T/C [1]: 104 % of control
- T/C (dose: 11.0 mg/kg/injection, schedule: Q01DX009 (ip), vehicle: saline with Tween-80): 114 % of control
- T/C (dose: 12.0 mg/kg/injection, schedule: Q01DX Z (ip), vehicle: carboxymethylcellulose (CMC)): 109 % of control
- T/C (dose: 16.5 mg/kg/injection, schedule: Q01DX009 (ip), vehicle: saline with Tween-80): 115 % of control
- T/C (dose: 18.0 mg/kg/injection, schedule: Q01DX Z (ip), vehicle: carboxymethylcellulose (CMC)): 119 % of control
- T/C (dose: 25.0 mg/kg/injection, schedule: Q01DX009 (ip), vehicle: saline with Tween-80): 110 % of control
- T/C (dose: 28.0 mg/kg/injection, schedule: Q01DX Z (ip), vehicle: carboxymethylcellulose (CMC)): 118 % of control
- T/C (dose: 28.0 mg/kg/injection, schedule: Q01DX Z (ip), vehicle: saline): 123 % of control
- T/C (dose: 40.0 mg/kg/injection, schedule: Q01DX015 (ip), vehicle: carboxymethylcellulose (CMC)): 104 % of control
- T/C (dose: 44.0 mg/kg/injection, schedule: Q04DX003 (ip), vehicle: saline sonified): 100 % of control
- T/C (dose: 45.0 mg/kg/injection, schedule: Q01DX Z (ip), vehicle: saline): 122 % of control
- T/C (dose: 50.0 mg/kg/injection, schedule: Q01DX001 (ip), vehicle: carboxymethylcellulose (CMC)): 124 % of control
- T/C (dose: 65.0 mg/kg/injection, schedule: Q01DX Z (ip), vehicle: saline): 105 % of control
- T/C (dose: 66.0 mg/kg/injection, schedule: Q04DX003 (ip), vehicle: saline sonified): 107 % of control
- T/C (dose: 100.0 mg/kg/injection, schedule: Q01DX001 (ip), vehicle: carboxymethylcellulose (CMC)): 120 % of control
- T/C (dose: 100.0 mg/kg/injection, schedule: Q01DX009 (ip), vehicle: saline sonified): 124 % of control
- T/C (dose: 100.0 mg/kg/injection, schedule: Q01DX Z (ip), vehicle: carboxymethylcellulose (CMC)): 122 % of control
- T/C (dose: 100.0 mg/kg/injection, schedule: Q04DX003 (ip), vehicle: saline sonified): 108 % of control
- T/C (dose: 150.0 mg/kg/injection, schedule: Q04DX003 (ip), vehicle: saline sonified): 124 % of control
- T/C (dose: 200.0 mg/kg/injection, schedule: Q04DX003 (ip), vehicle: Klucel (hydroxypropylcellulose) (HPC)): 111 % of control
- T/C (dose: 400.0 mg/kg/injection, schedule: Q01DX009 (ip), vehicle: saline sonified): 165 % of control
- T/C (dose: 400.0 mg/kg/injection, schedule: Q04DX003 (ip), vehicle: Klucel (hydroxypropylcellulose) (HPC)): 96 % of control

Compound: c1ccc(-c2cc3ccccc3[nH]2)cc1
- T/C (dose: 100.0 mg/kg/injection, schedule: Q01DX001 (ip), vehicle: Klucel (hydroxypropylcellulose) (HPC)): 98 % of control
- T/C (dose: 200.0 mg/kg/injection, schedule: Q01DX001 (ip), vehicle: Klucel (hydroxypropylcellulose) (HPC)): 96 % of control
- T/C (dose: 200.0 mg/kg/injection, schedule: Q01DX009 (ip), vehicle: Klucel (hydroxypropylcellulose) (HPC)): 94 % of control
- T/C (dose: 400.0 mg/kg/injection, schedule: Q01DX001 (ip), vehicle: Klucel (hydroxypropylcellulose) (HPC)): 102 % of control

Compound: CC(C)c1ccc2c(c1)CC[C@H]1[C@](C)(C(=O)O)CCC[C@]21C
- T/C (dose: 100.0 mg/kg/injection, schedule: Q01DX001 (ip), vehicle: saline with Tween-80): 101 % of control
- T/C (dose: 200.0 mg/kg/injection, schedule: Q01DX001 (ip), vehicle: saline with Tween-80): 105 % of control
- T/C (dose: 400.0 mg/kg/injection, schedule: Q01DX001 (ip), vehicle: saline with Tween-80): 105 % of control

Compound: O=C(Nc1ncn[nH]1)C(Cl)(Cl)Cl
- T/C (dose: 100.0 mg/kg/injection, schedule: Q04DX003 (ip), vehicle: carboxymethylcellulose (CMC)): 95 % of control
- T/C (dose: 200.0 mg/kg/injection, schedule: Q04DX003 (ip), vehicle: carboxymethylcellulose (CMC)): 100 % of control
- T/C (dose: 400.0 mg/kg/injection, schedule: Q04DX003 (ip), vehicle: carboxymethylcellulose (CMC)): 97 % of control
